This is an account of results in patent US20060084135A1, “Compositions for manipulating the lifespan and stress response of cells and organisms” (priority 2003, published 2006).

The target of one data set is recombinant GST-Sir2 (Saccharomyces cerevisiae, UniProt P06700). Kind of data set: Sir2 deacetylation rate assay. The class given is biochemical, S. cerevisiae. The settings on record: in vitro dose-response. The protocol:
Average lifespan was determined for wild type untreated (□), quercetin (◯) and piceatannol (●).
To investigate whether these compounds could stimulate sirtuins in vivo, we utilized S. cerevisiae, an organism in which the upstream regulators and downstream targets of Sir2 are relatively well understood.
His6-tagged recombinant SIRT1 and GST-tagged recombinant Sir2 were prepared as described by (Bitterman et al. J Biol Chem 277, 45099-107. (2002). From 0.1 to 1 μg of SIRT1 and 1.5 μg of Sir2 were used per deacetylation assay (in 50 μl total reaction). SIRT1 assays and certain of those for Sir2 employed the p53-382 acetylated substrate (‘Fluor de Lys-SIRT1′, BIOMOL) rather than FdL.
Themed compound libraries (BIOMOL) were used for primary and secondary screening. […] For water soluble compounds and negative controls, 1% v/v DMSO was added to the assay. […] HeLa cells were grown and the cellular deacetylation assays were performed and read, as above, but in full-volume 96-well microplates (Corning Costar 3595). […] Calculation of net fluorescence increases included subtraction of a blank value, which in the case of Sir2 was obtained by omitting the enzyme from the reaction and in the case of SIRT1 by adding an inhibitor (200 μM suramin or 1 mM nicotinamide) to the reaction prior to the acetylated substrate. […]

A short description of data set [1]: Stability in solution (decay of SIRT1 fold-stimulation of aged stock). Format: physicochemical. The settings on record: ethanol stock solution; ethanol stock 2.5 mM, room temperature, glass vials, nitrogen; assayed at 50 μM; read-out: Stability in Solution t1/2 (converted). The source says: The fold-stimulation (ratio to control) obtained with a compound diluted from an aged stock solution was compared to an identical dilution from a stock solution freshly prepared from the solid compound. “t1/2” is defined as the time required for the SIRT1 fold-stimulation of the compound from the aged solution to decay to one-half of that obtained from a freshly prepared solution. […] Stocks were aged by storage at room […] temperature, in glass vials, under a nitrogen atmosphere.

Sequence of recombinant GST-Sir2 (P06700 whole entry): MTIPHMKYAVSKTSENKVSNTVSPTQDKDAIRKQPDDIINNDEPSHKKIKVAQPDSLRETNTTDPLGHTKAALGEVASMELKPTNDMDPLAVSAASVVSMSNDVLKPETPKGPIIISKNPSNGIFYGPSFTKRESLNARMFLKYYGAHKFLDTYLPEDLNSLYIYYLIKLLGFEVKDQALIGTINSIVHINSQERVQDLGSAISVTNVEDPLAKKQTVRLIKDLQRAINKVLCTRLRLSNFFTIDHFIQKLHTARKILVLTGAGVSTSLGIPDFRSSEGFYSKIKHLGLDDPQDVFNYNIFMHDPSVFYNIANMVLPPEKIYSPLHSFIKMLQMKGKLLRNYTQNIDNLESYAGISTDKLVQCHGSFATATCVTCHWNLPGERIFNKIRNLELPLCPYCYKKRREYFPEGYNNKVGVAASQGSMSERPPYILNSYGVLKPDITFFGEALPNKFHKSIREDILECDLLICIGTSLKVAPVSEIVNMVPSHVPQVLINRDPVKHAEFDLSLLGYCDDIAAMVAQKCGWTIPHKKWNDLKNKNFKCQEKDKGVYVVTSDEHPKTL

Turning to `Oc1ccc(/C=C/c2cc(O)cc(O)c2)cc1` [Resveratrol, 3,5,4′-Trihydroxy-trans-stilbene], at recombinant GST-Sir2, the “Concentrations at which inhibition of Sir2 was seen” value is more than 100 µM and the “Optimum concentration of activator for Sir2 stimulation” value was 2 to 5 µM. In data set [1], the half-life at 50 µM is 59 h.
